Assay results published in patent publication US8957001B2, “Particles comprising a biopolymer which is degradable under the effect of an electromagnetic wave as emitted by a solar radiation” (BASF Beauty Care Solutions France SAS, priority 2002, dated 2015).

Experiment: Progressive release of an encapsulated active from liposomes under UV irradiation
Format: physicochemical
From the text: All is done in a manner identical to what is presented in Example 15, but RNA of marine origin, which is commercially available, is used in amounts which are identical to those used in Example 15. All is done in a manner identical to what is presented in Example 15, but DNA of plant origin or RNA of plant origin, which are commercially available (Inocosm), are used in amounts which are identical to those used in Example 15. All is done in a manner identical to what is presented in Example 15, but oligonucleosides or oligonucleotides, which are prepared by chemical synthesis and which are available from companies which manufacture these nucleosides or these nucleotides to order, are used for preparing these particles, in proportions which are identical to those used in Example 15.

Molecule | release under UV irradiation (encapsulated in plant DNA or plant RNA liposomes (Example 17), after 3 hours of irradiation) [%] | release under UV irradiation (encapsulated in plant DNA or plant RNA liposomes (Example 17), after 6 hours of irradiation) [%] | release under UV irradiation (encapsulated in marine RNA liposomes (Example 16), after 3 hours of irradiation) [%] | release under UV irradiation (encapsulated in marine RNA liposomes (Example 16), after 6 hours of irradiation) [%]
CCCCC(CC)COC(=O)C=Cc1ccc(OC)cc1 (stereo not shown) [Parsol MCX] | 60 | 96 |  | 
tocopherol |  |  | 40 | 80
